According to patent US6133291A, “N-(imidazolylalkyl)substituted cyclic amines as histamine-H3 agonists or antagonists” (Schering Corporation, priority 1998, dated 2000):
Where two headings read alike, the source gives them in different places.

How the values were obtained:
[1] = biological target: T1, H3 receptors (Cavia porcellus, UniProt Q9JI35); assay: H3-Receptor Binding Assay (guinea pig brain membranes, [3H]R-α-methylhistamine or [3H]Nα-methylhistamine)
[2] = biological target: T1, H3 receptors; assay: pA2 at H3 receptor (guinea pig neuronal ileum contraction assay); format: biochemical
Source text: pA2=-logEC50, as defined by J. Hey, Eur. J. Pharmacol., (1995), Vol. 294, 329.

[3] = system: histamine-H3 receptor; details: cited from earlier work
[4] = system: rat; details: cited from earlier work
[5] = system: mice; details: electrically induced convulsions; cited from earlier work
[6] = HCl salt, pA2=-logEC50 as defined by J. Hey, read-out: pA2 (converted)
[7] = HCl salt, guinea pig brain membranes, pH 7.5, 30° C., 30 min
[8] = HCl salt, pA2=-logEC50 as defined by J. Hey

T1 sequence (Q9JI35 whole entry): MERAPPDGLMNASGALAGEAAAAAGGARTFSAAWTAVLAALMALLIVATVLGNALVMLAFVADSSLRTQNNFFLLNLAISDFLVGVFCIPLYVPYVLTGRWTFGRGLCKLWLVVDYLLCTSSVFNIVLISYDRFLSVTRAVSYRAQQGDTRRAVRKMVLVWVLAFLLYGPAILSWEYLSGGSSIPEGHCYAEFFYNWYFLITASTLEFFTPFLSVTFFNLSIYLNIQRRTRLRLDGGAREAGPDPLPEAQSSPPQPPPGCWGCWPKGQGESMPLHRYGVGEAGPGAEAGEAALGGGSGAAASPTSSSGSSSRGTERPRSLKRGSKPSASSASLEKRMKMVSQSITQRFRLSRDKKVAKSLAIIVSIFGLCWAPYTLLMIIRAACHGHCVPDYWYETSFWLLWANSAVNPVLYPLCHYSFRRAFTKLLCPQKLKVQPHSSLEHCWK

Row | Structure (SMILES) | Ki [1] | Kb [2, 6] | other results
1 | O=C(Nc1ccc(OC(F)(F)F)cc1)C1CCN(CCCCc2c[nH]cn2)CC1 [No. 2] | 2 nM | 0.501 nM | 
2 | CCCNCC1CCN(CCCCc2c[nH]cn2)CC1 [No. 4] | 200 nM |  | 
3 | O=C(Nc1ccc(Cl)cc1)C1CCN(CCCCc2c[nH]cn2)CC1 [No. 7] | 35 nM |  | 
4 | O=C(Nc1ccc(Cl)c(Cl)c1)C1CCN(CCCCc2c[nH]cn2)CC1 [No. 8] | 27 nM | 158 nM | 
5 | O=C(Nc1cccc(C(F)(F)F)c1)C1CCN(CCCCc2c[nH]cn2)CC1 [No. 10] | 9 nM | 0.794 nM | 
6 | O=C(NCc1ccc(Cl)cc1)C1CCN(CCCc2c[nH]cn2)CC1 [No. 12] | 29 nM | 10 nM | 
7 | O=C(NC1CCN(CCCc2c[nH]cn2)CC1)c1ccc(OC(F)(F)F)cc1 [No. 17] | 23 nM |  | 
8 | O=C(NC1CCN(CCCc2c[nH]cn2)CC1)c1ccc(F)cc1 [No. 18] | 52 nM |  | 
9 | CC1(C(=O)Nc2ccc(OC(F)(F)F)cc2)CCN(CCCCc2c[nH]cn2)CC1 [No. 19] | 180 nM | 39.8 nM | 
10 | CC1(C(=O)Nc2ccc(OC(F)(F)F)cc2)CCCN(CCCCc2c[nH]cn2)C1 (stereo not shown) [No. 20] | 170 nM |  | 
11 | N=C(N)SCCCc1c[nH]cn1 [S-[3-(4(5)-imidazolyl)propyl]isothiourea] |  |  | H3 agonist/antagonist activity [3]: histamine-H3 antagonist
12 | CCOC(=O)C1CCN(CCCCc2c[nH]cn2)CC1 [compound 1] | 22 nM |  | 
13 | CCCNC(=O)C1CCN(CCCCc2c[nH]cn2)CC1 [compound 3] | 53 nM |  | 
14 | CCCN(CC1CCN(CCCCc2c[nH]cn2)CC1)S(=O)(=O)c1ccc(Cl)cc1 [compound 5] | 44 nM |  | 
15 | CCCN(CC1CCN(CCCCc2c[nH]cn2)CC1)S(=O)(=O)c1ccc(OC(F)(F)F)cc1 [compound 6] | 24 nM | 316 nM | 
16 | O=C(Nc1cccc(Cl)c1)C1CCN(CCCCc2c[nH]cn2)CC1 [compound 9] | 5.5 nM | 1.26 nM | 
17 | O=C(Nc1cccc(OC(F)(F)F)c1)C1CCN(CCCc2c[nH]cn2)CC1 [compound 11] | 1 nM | 0.631 nM | 
18 | O=C(NCc1ccc(OC(F)(F)F)cc1)C1CCN(CCCc2c[nH]cn2)CC1 [compound 13] | 24 nM | 31.6 nM | 
19 | CCCCOc1ccc(NC(=O)C2CCN(CCCc3c[nH]cn3)CC2)cc1 [compound 14] | 10 nM | 1 nM | 

Row | Structure (SMILES) | Ki [1] | Kb [2, 6] | other results
20 | O=C(Nc1ccc(O)cc1)C1CCN(CCCc2c[nH]cn2)CC1 [compound 15] | 100 nM |  | 
21 | O=C(Nc1cccc(O)c1)C1CCN(CCCc2c[nH]cn2)CC1 [compound 16] | 700 nM |  | 
22 | FC(F)(F)Oc1ccc(CNC2CCN(CCCCc3c[nH]cn3)CC2)cc1 [compound 21] | 13 nM | 7.94 nM | 
23 | FC(F)(F)Oc1ccc(NCC2CCN(CCCCc3c[nH]cn3)CC2)cc1 [compound 22] | 9 nM |  | 
24 | c1nc(CCCCN2CCC(N3CCCCC3)CC2)c[nH]1 [compound 24] | 100 nM | 631 nM | 
25 | OC1(c2ccc(Cl)cc2)CCN(CCCc2c[nH]cn2)CC1 [compound 25] | 6 nM |  | Kb [2]: 12.6 nM
26 | OC1(c2ccc(Cl)cc2)CCN(CCCCc2c[nH]cn2)CC1 [compound 26] | 6 nM |  | Kb [2]: 10 nM
27 | OC1(c2ccc(Cl)cc2)CCN(CCCCCc2c[nH]cn2)CC1 [compound 27] | 5 nM |  | Kb [2]: 7.94 nM
28 | OC1(c2cccc(C(F)(F)F)c2)CCN(CCCCc2c[nH]cn2)CC1 [compound 28] | 60 nM |  | 
29 | OCCN1CCC(CCCC2CCN(CCCc3c[nH]cn3)CC2)CC1 [compound 29] |  |  | Ki [1, 7]: 12 nM; pA2 [2, 8]: 7.1
30 | OCCN1CCC(CCCC2CCN(CCCCc3c[nH]cn3)CC2)CC1 [compound 30] |  |  | Ki [1, 7]: 7 nM; pA2 [2, 8]: 7.7
31 | Fc1ccc(C2=CCN(CCCCc3c[nH]cn3)CC2)cc1 [compound 31] | 14 nM |  | Kb [2]: 12.6 nM
32 | O=C(c1ccc(F)cc1)C1CCN(CCCc2c[nH]cn2)CC1 [compound 32] | 6 nM | 20 nM | 
33 | O=C(c1ccc(F)cc1)C1CCN(CCCCc2c[nH]cn2)CC1 [compound 33] | 3 nM | 6.31 nM | 
34 | Fc1ccc(OCC2CCN(CCCCc3c[nH]cn3)CC2)cc1 [compound 34] | 10 nM | 20 nM | 
35 | CCC(=O)C1(c2ccccc2)CCN(CCCc2c[nH]cn2)CC1 [compound 35] | 500 nM |  | 
36 | OC1(Cc2ccccc2)CCN(CCCc2c[nH]cn2)CC1 [compound 36] | 660 nM |  | 
37 | S=C(NC1CCCCC1)N1CCC(c2cnc[nH]2)CC1 [thioperamide] |  |  | reversal learning [4]: improve short-term memory and reversal learning; short-term memory [4]: improve short-term memory; duration of each phase of convulsion [5]: decreased the duration of each phase of convulsion; electroconvulsive threshold [5]: raised the electroconvulsive threshold
